In general, Ki refers to a dissociation constant, usually derived from enzyme kinetics or from competition with a known ligand. Higher therefore signals weaker binding.

This test has as its target T1, methionine adenosyltransferase (MAT; S-adenosylmethionine synthetase) (Mycolicibacterium smegmatis, UniProt A0QWT3).
T1 sequence (A0QWT3 1-399): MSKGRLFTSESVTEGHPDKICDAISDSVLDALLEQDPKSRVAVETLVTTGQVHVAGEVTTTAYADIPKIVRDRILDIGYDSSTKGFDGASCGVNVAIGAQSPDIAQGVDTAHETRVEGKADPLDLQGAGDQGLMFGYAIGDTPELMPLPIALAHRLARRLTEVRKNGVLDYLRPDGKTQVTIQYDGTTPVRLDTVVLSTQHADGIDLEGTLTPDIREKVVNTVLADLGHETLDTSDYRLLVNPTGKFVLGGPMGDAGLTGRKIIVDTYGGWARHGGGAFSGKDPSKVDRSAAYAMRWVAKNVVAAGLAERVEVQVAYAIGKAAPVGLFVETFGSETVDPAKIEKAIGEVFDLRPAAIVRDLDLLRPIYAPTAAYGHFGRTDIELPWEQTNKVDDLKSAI
The test can be described thus: HPLC assay of SAM formation, Dixon plots with varied ATP. The class given is biochemical.

SMILES strings stand for the structures.

Take `Nc1nc2nn[nH]c2c(=O)[nH]1` [8-azaguanine]: the inhibitory constant (Ki) stood at 4.7 ± 0.77 mM.
`Cn1cnc([N+](=O)[O-])c1Sc1ncnc2nc[nH]c12` [azathioprine] yielded an inhibition constant Ki of 3.74 ± 1 mM.

Values taken from PMC165446 (BMC Microbiology, 2003).
